Experiments:
Format in all cases: functional
Rattus norvegicus [1] = species on record: Rattus norvegicus; test: Ability to enhance stimulated release of AcCh from striatum region of rat brain
Rattus norvegicus [2] = test: Tested for rat passive avoidance hypoxia induced amnesia at 10.0 mg/kg administered subcutaneously (p<0.025); settings: route subcutaneous
Rattus norvegicus [3] = test: Tested for rat passive avoidance hypoxia induced amnesia at 30.0 mg/kg administered subcutaneously (p<0.05); settings: route subcutaneous
Rattus norvegicus [4] = test: Tested for rat passive avoidance hypoxia induced amnesia at 100 mg/kg administered subcutaneously; settings: route subcutaneous
Rattus norvegicus [5] = test: Tested for rat passive avoidance hypoxia induced amnesia at 3.0 mg/kg administered subcutaneously (p<0.025); settings: route subcutaneous
Rattus norvegicus [6] = test: Tested for rat passive avoidance hypoxia induced amnesia at 0.1 mg/kg administered subcutaneously; settings: route subcutaneous
Rattus norvegicus [7] = test: Tested for rat passive avoidance hypoxia induced amnesia at 0.3 mg/kg administered subcutaneously.; settings: route subcutaneous
Rattus norvegicus [8] = test: Tested for rat passive avoidance hypoxia induced amnesia at 1.0 mg/kg administered subcutaneously; settings: route subcutaneous
Rattus norvegicus [9] = species on record: Rattus norvegicus; test: Tested for rat passive avoidance hypoxia induced amnesia (no hypoxia)

Compound	Release (Rattus norvegicus [1])	also measured
O=C1N(c2ccccc2)c2ccccc2C1(O)Cc1ccncc1 (centres undefined)	8%	
Cl.O=C1N(c2ccccc2)c2ccccc2C1(CCCCO)Cc1ccncc1 (centres undefined)	29%	
O=C1N(c2ccccc2)c2ccccc2C1(Cc1ccncc1)Cc1ccncc1 [LINOPIRDINE]	100%	
Cl.N#CCCCCCC1(Cc2ccncc2)C(=O)N(c2ccccc2)c2ccccc21 (centres undefined)	74%	
Cl.O=C1N(c2ccccc2)c2ccccc2C1(CCO)Cc1ccncc1 (centres undefined)	12%	
CCOC(=O)CCCC1(Cc2ccncc2)C(=O)N(c2ccccc2)c2ccccc21.Cl (racemic)	109%	
CC(=O)OCCCCC1(Cc2ccncc2)C(=O)N(c2ccccc2)c2ccccc21.Cl (centres undefined)	27%	
CCCS(=O)(=O)CCCCC1(Cc2ccncc2)C(=O)N(c2ccccc2)c2ccc(Cl)cc21.Cl (centres undefined)	8%	
Cl.N#CCCCCCCC1(Cc2ccncc2)C(=O)N(c2ccccc2)c2ccccc21 (centres undefined)	19%	
CN(C)CCC1(Cc2ccncc2)C(=O)N(c2ccccc2)c2ccccc21.Cl.Cl (centres undefined)	3%	
CCCCCCC1(Cc2ccncc2)C(=O)N(c2ccccc2)c2ccccc21 (centres undefined)	6%	
Cl.O=C(O)CCCC1(Cc2ccncc2)C(=O)N(c2ccccc2)c2ccccc21 (centres undefined)	0%	
Cl.O=C(CCC1(Cc2ccncc2)C(=O)N(c2ccccc2)c2ccccc21)c1ccc(F)cc1 (centres undefined)	11%	
COC(=O)CCC1(Cc2ccncc2)C(=O)N(c2ccccc2)c2ccccc21.Cl (centres undefined)	51%	
Cl.N#CCC1(Cc2ccncc2)C(=O)N(c2ccccc2)c2ccccc21 (centres undefined)	11%	
CCOC(=O)CCCC1(Cc2ccncc2)C(=O)N(c2ccccc2)c2ccccc21.Cl (stereo in doubt; 8)	99%	Median retension latency (Rattus norvegicus [2]): 136; Median retension latency (Rattus norvegicus [3]): 201; Median retension latency (Rattus norvegicus [4]): 34; Median retension latency (Rattus norvegicus [5]): 112; Median retension latency (Rattus norvegicus [6]): 79.5; Median retension latency (Rattus norvegicus [7]): 37.5; Median retension latency (Rattus norvegicus [8]): 89.5; Median retension latency (Rattus norvegicus [9]): 300

Compound	Release (Rattus norvegicus [1])	also measured
Cl.NC(=O)CCCC1(Cc2ccncc2)C(=O)N(c2ccccc2)c2ccccc21 (centres undefined)	26%	
Cl.N#CCCCCC1(Cc2ccncc2)C(=O)N(c2ccccc2)c2ccccc21 (centres undefined)	133%	
Cl.O=C(CCCC1(Cc2ccncc2)C(=O)N(c2ccccc2)c2ccccc21)c1ccc(F)cc1 (centres undefined)	29%	
CC(=O)CCCC1(Cc2ccncc2)C(=O)N(c2ccccc2)c2ccccc21.Cl (centres undefined)	18%	
O=C1C(Cc2ccncc2)c2ccccc2N1c1ccccc1 (centres undefined)	0%	
Cl.O=C(O)CC1(Cc2ccncc2)C(=O)N(c2ccccc2)c2ccccc21 (centres undefined)	-2%	
CCCSCCCCC1(Cc2ccncc2)C(=O)N(c2ccccc2)c2ccccc21.Cl (centres undefined)	24%	
CCOC(=O)/C=C/CC1(Cc2ccncc2)C(=O)N(c2ccccc2)c2ccccc21.Cl (centres undefined)	41%	
CCOC(=O)CCCCC1(Cc2ccncc2)C(=O)N(c2ccccc2)c2ccccc21.Cl (centres undefined)	3%	
CCOC(=O)CCC1(Cc2ccncc2)C(=O)N(c2ccccc2)c2ccccc21.Cl (centres undefined)	57%	
CCOCCCCC1(Cc2ccncc2)C(=O)N(c2ccccc2)c2ccccc21.Cl (centres undefined)	17%	
CCOC(=O)CC1(Cc2ccncc2)C(=O)N(c2ccccc2)c2ccccc21.Cl (centres undefined)	21%	
O=C1N(c2ccccc2)c2ccccc2C1(CCCO)Cc1ccncc1 (centres undefined)	27%	
Cl.N#CCCCC1(Cc2ccncc2)C(=O)N(c2ccccc2)c2ccccc21 (centres undefined)	74%	
CCOC(=O)CCCC1(Cc2ccncc2)C(=O)N(c2ccccc2)c2ccccc21.Cl (single isomer, unassigned; (-))	3%	

Source: ChEMBL document CHEMBL1126833, “3-Substituted, 3-(4-pyridinylmethyl)-1,3-dihydro-1-phenyl-2H-indol-2-ones as acetylcholine release enhancers: synthesis and SAR” (J Med Chem, 1993)
